Here are results for four compounds from PubChem BioAssay AID1259407 (Chemical Carcinogenesis Research Information System (CCRIS), 2018).

Active and inactive are the calls of the source. How the calls were made is not given here.

This data set deals with CCRIS mutagenicity, Ames/micronucleus/aberration tests. Briefly: CCRIS mutagenicity studies.
Setting [1] is: Test System: AMES SALMONELLA TYPHIMURIUM, Strain/Indicator: TA98, Metabolic Activation: NONE, Method: PREINCUBATION
[2] abbreviates: Test System: AMES SALMONELLA TYPHIMURIUM, Strain/Indicator: TA100, Metabolic Activation: NONE, Method: PREINCUBATION

Turning to `C=CC(=C)CCC=C(C)C`, the mutagenic call runs as follows: (End Point: E. coli, Strain/Indicator: WP2uvrA/pKM101, Metabolic Activation: None, Method: Preincubation) “inactive; negative”; (End Point: E. coli, Strain/Indicator: WP2uvrA/pKM101, Metabolic Activation: Rat, Liver, S-9, Aroclor 1254 (10%), Method: Preincubation) “inactive; negative”; (End Point: In vivo micronucleus, Test System: Micronucleated normochromatic erythrocytes, Species: Mouse, Strain/Sex: B6C3F1 / Female, Route: Oral) “inactive; negative”; (End Point: In vivo micronucleus, Test System: Micronucleated normochromatic erythrocytes, Species: Mouse, Strain/Sex: B6C3F1 / Male, Route: Oral) “inactive; negative”; (Test System: AMES SALMONELLA TYPHIMURIUM, Strain/Indicator: TA97A, Metabolic Activation: NONE, Method: STANDARD PLATE) “inactive; negative”; (Test System: AMES SALMONELLA TYPHIMURIUM, Strain/Indicator: TA97A, Metabolic Activation: RAT, LIVER, S-9, AROCLOR 1254, Method: STANDARD PLATE) “inactive; negative”. Further, the mutagenic call was “inactive; negative” (Test System: AMES SALMONELLA TYPHIMURIUM, Strain/Indicator: TA98, Metabolic Activation: NONE, Method: STANDARD PLATE); “inactive; negative” (Test System: AMES SALMONELLA TYPHIMURIUM, Strain/Indicator: TA98, Metabolic Activation: RAT, LIVER, S-9, AROCLOR 1254, Method: STANDARD PLATE); “inactive; negative” (Test System: AMES SALMONELLA TYPHIMURIUM, Strain/Indicator: TA100, Metabolic Activation: NONE, Method: STANDARD PLATE); “inactive; negative” (Test System: AMES SALMONELLA TYPHIMURIUM, Strain/Indicator: TA100, Metabolic Activation: RAT, LIVER, S-9, AROCLOR 1254, Method: STANDARD PLATE); “inactive; negative” (Test System: AMES SALMONELLA TYPHIMURIUM, Strain/Indicator: TA1535, Metabolic Activation: NONE, Method: STANDARD PLATE); “inactive; negative” (Test System: AMES SALMONELLA TYPHIMURIUM, Strain/Indicator: TA1535, Metabolic Activation: RAT, LIVER, S-9, AROCLOR 1254, Method: STANDARD PLATE). For the same compound, the mutagenic call runs as follows: (Test System: Ames Salmonella typhimurium, Strain/Indicator: TA97, Metabolic Activation: Hamster, Liver, S-9, Aroclor 1254 (10%), Method: Preincubation) “inactive; negative”; (Test System: Ames Salmonella typhimurium, Strain/Indicator: TA97, Metabolic Activation: Hamster, Liver, S-9, Aroclor 1254 (30%), Method: Preincubation) “inactive; negative”; (Test System: Ames Salmonella typhimurium, Strain/Indicator: TA97, Metabolic Activation: None, Method: Preincubation) “inactive; negative”; (Test System: Ames Salmonella typhimurium, Strain/Indicator: TA97, Metabolic Activation: Rat, Liver, S-9, Aroclor 1254 (10%), Method: Preincubation) “inactive; negative”; (Test System: Ames Salmonella typhimurium, Strain/Indicator: TA97, Metabolic Activation: Rat, Liver, S-9, Aroclor 1254 (30%), Method: Preincubation) “inactive; negative”; (Test System: Ames Salmonella typhimurium, Strain/Indicator: TA98, Metabolic Activation: Hamster, Liver, S-9, Aroclor 1254 (10%), Method: Preincubation) “inactive; negative”. Further, the mutagenic call is “inactive; negative” (Test System: Ames Salmonella typhimurium, Strain/Indicator: TA98, Metabolic Activation: Hamster, Liver, S-9, Aroclor 1254 (30%), Method: Preincubation); “inactive; negative” (Test System: Ames Salmonella typhimurium, Strain/Indicator: TA98, Metabolic Activation: None, Method: Preincubation); “inactive; negative” (Test System: Ames Salmonella typhimurium, Strain/Indicator: TA98, Metabolic Activation: Rat, Liver, S-9, Aroclor 1254 (10%), Method: Preincubation); “inactive; negative” (Test System: Ames Salmonella typhimurium, Strain/Indicator: TA98, Metabolic Activation: Rat, Liver, S-9, Aroclor 1254 (30%), Method: Preincubation); “inactive; negative” (Test System: Ames Salmonella typhimurium, Strain/Indicator: TA100, Metabolic Activation: Hamster, Liver, S-9, Aroclor 1254 (10%), Method: Preincubation); “inactive; negative” (Test System: Ames Salmonella typhimurium, Strain/Indicator: TA100, Metabolic Activation: Hamster, Liver, S-9, Aroclor 1254 (30%), Method: Preincubation). Further, the mutagenic call is “inactive; negative” (Test System: Ames Salmonella typhimurium, Strain/Indicator: TA100, Metabolic Activation: None, Method: Preincubation); “inactive; negative” (Test System: Ames Salmonella typhimurium, Strain/Indicator: TA100, Metabolic Activation: Rat, Liver, S-9, Aroclor 1254 (10%), Method: Preincubation); “inactive; negative” (Test System: Ames Salmonella typhimurium, Strain/Indicator: TA100, Metabolic Activation: Rat, Liver, S-9, Aroclor 1254 (30%), Method: Preincubation); “inactive; negative” (Test System: Ames Salmonella typhimurium, Strain/Indicator: TA1535, Metabolic Activation: Hamster, Liver, S-9, Aroclor 1254 (10%), Method: Preincubation); “inactive; negative” (Test System: Ames Salmonella typhimurium, Strain/Indicator: TA1535, Metabolic Activation: Hamster, Liver, S-9, Aroclor 1254 (30%), Method: Preincubation); “inactive; negative” (Test System: Ames Salmonella typhimurium, Strain/Indicator: TA1535, Metabolic Activation: None, Method: Preincubation). Moreover, the mutagenic call is “inactive; negative” (Test System: Ames Salmonella typhimurium, Strain/Indicator: TA1535, Metabolic Activation: Rat, Liver, S-9, Aroclor 1254 (10%), Method: Preincubation); “inactive; negative” (Test System: Ames Salmonella typhimurium, Strain/Indicator: TA1535, Metabolic Activation: Rat, Liver, S-9, Aroclor 1254 (30%), Method: Preincubation); “inactive; negative” (Test System: CHINESE HAMSTER V-79, Strain/Indicator: V-79/6-THIOGUANINE (HGPRT), Metabolic Activation: NONE, Method: PREINCUBATION); “inactive; negative” (Test System: CHINESE HAMSTER V-79, Strain/Indicator: V-79/6-THIOGUANINE (HGPRT), Metabolic Activation: RAT, LIVER, S-9, Method: PREINCUBATION); “inactive; negative” (Test System: E. coli, Strain/Indicator: WP2 IC185 trpE65, Metabolic Activation: None, Method: Plate incorporation (Test material solvent: ethanol)); “inactive; negative” (Test System: E. coli, Strain/Indicator: WP2 IC202 trpE65 oxyR/pKM101, Metabolic Activation: None, Method: Plate incorporation (Test material solvent: ethanol)).
Regarding `CC(=O)Nc1cccc(N)c1C(=O)O`, the mutagenic call runs as follows: under setting [1], “inactive; negative”; (Test System: AMES SALMONELLA TYPHIMURIUM, Strain/Indicator: TA98, Metabolic Activation: RAT, LIVER, S-9, PHENOBARBITAL AND 5,6-BENZOFLAVONE, Method: PREINCUBATION) “active; positive”; under setting [2], “inactive; negative”; (Test System: AMES SALMONELLA TYPHIMURIUM, Strain/Indicator: TA100, Metabolic Activation: RAT, LIVER, S-9, PHENOBARBITAL AND 5,6-BENZOFLAVONE, Method: PREINCUBATION) “inactive; negative”.
For the compound `CCCCCCCCOC(=O)c1ccccc1C(=O)OCCCCCCCC`, the mutagenic call reads like this: (Test System: AMES SALMONELLA TYPHIMURIUM, Strain/Indicator: TA98, Metabolic Activation: HAMSTER, LIVER, S-9, AROCLOR 1254 (10%), Method: PREINCUBATION) “inactive; negative”; under setting [1], “inactive; negative”; (Test System: AMES SALMONELLA TYPHIMURIUM, Strain/Indicator: TA98, Metabolic Activation: RAT, LIVER, S-9, AROCLOR 1254 (10%), Method: PREINCUBATION) “inactive; negative”; (Test System: AMES SALMONELLA TYPHIMURIUM, Strain/Indicator: TA100, Metabolic Activation: HAMSTER, LIVER, S-9, AROCLOR 1254 (10%), Method: PREINCUBATION) “inactive; negative”; under setting [2], “inactive; negative”; (Test System: AMES SALMONELLA TYPHIMURIUM, Strain/Indicator: TA100, Metabolic Activation: RAT, LIVER, S-9, AROCLOR 1254 (10%), Method: PREINCUBATION) “inactive; negative”. Besides, the mutagenic call reads like this: (Test System: AMES SALMONELLA TYPHIMURIUM, Strain/Indicator: TA1535, Metabolic Activation: HAMSTER, LIVER, S-9, AROCLOR 1254 (10%), Method: PREINCUBATION) “inactive; negative”; (Test System: AMES SALMONELLA TYPHIMURIUM, Strain/Indicator: TA1535, Metabolic Activation: NONE, Method: PREINCUBATION) “inactive; negative”; (Test System: AMES SALMONELLA TYPHIMURIUM, Strain/Indicator: TA1535, Metabolic Activation: RAT, LIVER, S-9, AROCLOR 1254 (10%), Method: PREINCUBATION) “inactive; negative”; (Test System: AMES SALMONELLA TYPHIMURIUM, Strain/Indicator: TA1537, Metabolic Activation: HAMSTER, LIVER, S-9, AROCLOR 1254 (10%), Method: PREINCUBATION) “inactive; negative”; (Test System: AMES SALMONELLA TYPHIMURIUM, Strain/Indicator: TA1537, Metabolic Activation: NONE, Method: PREINCUBATION) “inactive; negative”; (Test System: AMES SALMONELLA TYPHIMURIUM, Strain/Indicator: TA1537, Metabolic Activation: RAT, LIVER, S-9, AROCLOR 1254 (10%), Method: PREINCUBATION) “inactive; negative”.
For `Nc1cc(N)cc(C(=O)O)c1`, the mutagenic call (End Point: IN VITRO CHROMOSOMAL ABERRATIONS, Test System: CHL CELLS, Metabolic Activation: RAT, LIVER, S-9, SODIUM PHENOBARBITAL AND 5,6-BENZOFLAVONE) is “inactive; negative”; the mutagenic call (End Point: IN VITRO MICRONUCLEUS, Test System: CHL/IU CELLS, Metabolic Activation: RAT, LIVER, S-9, PHENOBARBITAL AND 5,6-BENZOFLAVONE) is “inactive; negative”; the mutagenic call (Test System: UDS RODENT HEPATOCYTES, Strain/Indicator: THY INCORP (NON-S-PHASE), Metabolic Activation: NONE, Method: AUTORADIOGRAPHY) is “active; positive”.
